Here are results for seven molecules from patent US9862707B2, “TrkA kinase inhibitors, compositions and methods thereof” (Merck Sharp & Dohme Corp., priority 2014, dated 2018).

In general, IC50 refers to the point on the concentration scale where inhibition reaches its midpoint. Low readings indicate greater potency in that assay, high ones weaker potency in that assay.

This experiment addresses human TrkA receptor (Homo sapiens (Human), UniProt P04629). Kind of experiment: TrkA functional activity, DiscoverX PathHunter assay. The class given is cell-based. To be noted: U2OS cells expressing human TrkA-PK, Shc1-EA and p75NTR; compound 1 h, then NGF at ~80% of maximal response for 3 h; luminescence.

human TrkA receptor, sequence (P04629 33-796): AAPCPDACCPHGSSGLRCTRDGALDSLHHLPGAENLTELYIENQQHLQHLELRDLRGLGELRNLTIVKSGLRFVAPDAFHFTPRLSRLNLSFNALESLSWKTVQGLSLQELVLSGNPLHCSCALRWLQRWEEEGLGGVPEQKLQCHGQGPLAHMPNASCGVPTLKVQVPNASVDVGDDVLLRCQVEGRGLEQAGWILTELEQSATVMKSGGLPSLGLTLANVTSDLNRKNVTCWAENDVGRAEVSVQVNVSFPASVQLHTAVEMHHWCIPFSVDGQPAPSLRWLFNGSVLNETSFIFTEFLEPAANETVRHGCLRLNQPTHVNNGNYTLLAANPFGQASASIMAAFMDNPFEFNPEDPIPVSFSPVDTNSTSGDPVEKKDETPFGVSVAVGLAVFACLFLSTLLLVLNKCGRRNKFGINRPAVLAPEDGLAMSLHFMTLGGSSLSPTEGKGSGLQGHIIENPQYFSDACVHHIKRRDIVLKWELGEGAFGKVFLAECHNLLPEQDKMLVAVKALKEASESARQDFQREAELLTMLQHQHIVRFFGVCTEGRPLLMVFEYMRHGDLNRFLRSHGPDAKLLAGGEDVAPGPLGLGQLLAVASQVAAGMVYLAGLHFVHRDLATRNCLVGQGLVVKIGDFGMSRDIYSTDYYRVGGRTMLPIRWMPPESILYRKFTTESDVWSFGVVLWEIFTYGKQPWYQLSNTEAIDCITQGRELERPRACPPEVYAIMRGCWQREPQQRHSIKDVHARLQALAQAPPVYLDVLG

Take `NC(=O)Cc1ccc2c(NC(=O)c3cc(-c4ncccn4)c(C(F)(F)F)cc3F)n(-c3ccccc3)nc2c1` [Compound 94, N-(6-(2-Amino-2-oxoethyl)-2-phenyl-2H-indazol-3-yl)-2-fluoro-5-(pyrimidin-2-yl)-4-(trifluoromethyl)benzamide]: half-maximal inhibition (IC50) was put at 4.4 nM. In turn, `Cn1ccc(-c2cc(C(=O)Nc3c4cccc(CC(N)=O)c4nn3-c3ccccc3)c(F)cc2C(F)(F)F)n1` [Compound 95, N-(7-(2-Amino-2-oxoethyl)-2-phenyl-2H-indazol-3-yl)-2-fluoro-5-(1-methyl-1H-pyrazol-3-yl)-4-(trifluoromethyl)benzamide] registered an IC50 of 0.64 nM. Next, `CNC(=O)Cc1ccc2c(NC(=O)c3cc(-c4ncccn4)c(C(F)(F)F)cc3F)n(-c3ccccc3)nc2c1` [Compound 96, 2-fluoro-N-{6-[2-(methylamino)-2-oxoethyl]-2-phenyl-2H-indazol-3-yl}-5-pyrimidin-2-yl-4-(trifluoromethyl)benzamide]: 8.9 nM; `O=C(CO)NCc1ccc2c(NC(=O)c3cc(-c4ncccn4)c(C(F)(F)F)cc3F)n(-c3ccccc3)nc2c1` [Compound 98, 2-Fluoro-N-(6-((2-hydroxyacetamido)methyl)-2-phenyl-2H-indazol-3-yl)-5-(pyrimidin-2-yl)-4-(trifluoromethyl)benzamide]: 11 nM.

Molecule `Cn1ccc(-c2cc(C(=O)Nc3c4nccc(CN5C(=O)CNC5=O)c4nn3-c3ccccc3)c(F)cc2C(F)(F)F)n1` [Compound 99, N-(7-((2,5-dioxoimidazolidin-1-yl)methyl)-2-phenyl-2H-pyrazolo[4,3-b]pyridin-3-yl)-2-fluoro-5-(1-methyl-1H-pyrazol-3-yl)-4-(trifluoromethyl)benzamide] registered an IC50 of 0.88 nM. The molecule `Cn1ccc(-c2cc(C(=O)Nc3c4ccc([C@@H](N)C(F)(F)F)cc4nn3-c3ccccc3)ccc2C(F)(F)F)n1` [Compound 100] yielded an IC50 of 2.7 nM. This IC50 is about 3.1-fold higher than that of the molecule before. Next, `Cn1ccc(-c2cc(C(=O)Nc3c4ccc([C@H](N)C(F)(F)F)cc4nn3-c3ccccc3)ccc2C(F)(F)F)n1` [Compound 101, (S)—N-(6-(1-Amino-2,2,2-trifluoroethyl)-2-phenyl-2H-indazol-3-yl)-3-(1-methyl-1H-pyrazol-3-yl)-4-(trifluoromethyl)benzamide]: 1.8 nM.
